The values below come from US5358712A, “Radiopharmaceutical agents for the detection of Alzheimer's disease” (Regents of the University of Minnesota, priority 1993, dated 1994).

SMILES strings stand for the structures.

In series [1] the target is T1, vesamicol receptor (Tetronarce californica, UniProt P81721).
T1 construct: no ATP or acetylcholine
T1 sequence (P81721 1-515): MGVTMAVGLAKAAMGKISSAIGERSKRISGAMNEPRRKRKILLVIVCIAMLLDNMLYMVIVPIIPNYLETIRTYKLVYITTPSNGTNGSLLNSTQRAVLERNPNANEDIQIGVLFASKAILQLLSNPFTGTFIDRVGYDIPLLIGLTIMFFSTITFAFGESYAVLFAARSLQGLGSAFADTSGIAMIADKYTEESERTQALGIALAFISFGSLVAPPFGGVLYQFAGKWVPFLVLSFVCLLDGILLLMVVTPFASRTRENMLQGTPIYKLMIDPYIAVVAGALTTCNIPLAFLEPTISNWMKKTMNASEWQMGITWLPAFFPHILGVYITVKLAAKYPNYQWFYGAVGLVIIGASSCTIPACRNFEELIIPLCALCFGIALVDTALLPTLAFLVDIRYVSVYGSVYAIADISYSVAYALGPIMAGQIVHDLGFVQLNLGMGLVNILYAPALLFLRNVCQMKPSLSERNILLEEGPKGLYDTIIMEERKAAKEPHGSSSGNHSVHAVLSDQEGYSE
The experiment in a line: Binding affinities of aminoalcohols at the vesamicol receptor (purified cholinergic synaptic vesicles). Further details: species or system Torpedo californica. The procedure: The compounds were evaluated in a purified preparation of cholinergic synaptic vesicles isolated from the electric organ of Torpedo californica. A full description of this assay was described earlier. However, the present study was carried out in the absence of ATP and acetylcholine. […] Nonlinear regression analysis was carried out with MINSQ (MicroMath Scientific Software, Salt Lake City, Utah.). Protein content was determined by the method of Bradford, using a bovine serum albumin standard.
^a The compounds were tested as the corresponding hydrochlorides,
using highly purified synaptic vesicles obtained from the electric organ
of Torpedo Californica, following a procedure described earlier (8).

A further series has as its system monkey brain. The experiment in a line: Brain imaging study (SPECT). In kind it is in vivo. Conditions: cynomolgus monkey. The protocol: These studies were conducted with a Picker 3-head PRISM camera equipped with a high-resolution fan beam collimator. A 5-Kg male cynomolgus monkey, anesthetized with halothane, received an intravenous dose of 12 mCi of (-)-4-[^123 I]HIPP ((-)-[^123 I]5) in 1 ml of 50% ethanol-isotonicsaline. Data acquisition which commenced simultaneously, in the "step and shoot" mode, was divided into one 5minute segment, six 10-minute segments and a final 20-minute segment. At 18 hours post-injection, data was acquired under similar conditions for both the head and the heart, over a 20 minute period. For cardiac imaging, the camera was equipped with a medium-energy-parallel-hole collimator. The data was subsequently processed to obtain both a time-activity curve and images in the transaxial and sagittal planes. To obtain an estimate of the fractional accumulation of (-)-4-^123 I]HIPP in the monkey brain, a phantom filled consecutively with varying concentrations of aqueous Na^125 I was counted with the gamma camera to generate a standard curve.

The subject of series [2] is vesamicol receptor. Nature of the series: Ligand displacement studies in vivo. Conditions: rat, vesamicol iv 30 minutes after radiotracer. On the set-up: species or system rat (male Wistar). The procedure: To determine if vesamicol could displace bound [^125 I]5 in vivo, a blocking dose of vesamicol was injected intravenously 30 minutes following the administration of (-)-[^125 I]5.
Two groups of male Wistar rats (n=3) were used in this study. Each animal initially received, while under anesthesia, an iv dose of (-)-5, (9.5 μCi) in 0.1 ml of 50% aqueous ethanol. After 30 min. the control group received an iv dose of 50% aqueous ethanol (0.1 ml) while the second group received an iv dose of (dl)-vesamicol hydrochloride (1.1 μmol/kg) in 0.1 ml of 50% aqueous ethanol. All animals were sacrificed, as described above, at one hour following radiotracer injection. Data was analyzed as described above.

Series [3] relates to vesicular acetylcholine storage. Conditions: cited from earlier work; for vesamicol-like inhibitory activity (in words): Kaufman et al 1988, Rogers et al 1989.
In series [4] the test system is vesamicol receptor. Conditions: cited from earlier work.
Series [5] concerns vesamicol receptor. The experiment in a line: Blocking experiments: inhibition of radiotracer accumulation in the rat by coadministered compound. Conditions: rat. In kind it is in vivo, rat (male Wistar). An outline of the steps:
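Male Wistar rats (n=3/group) got iv radiotracer, alone or coadministered with blocker (e.g. (+)/(−)-HBrPP·HCl 1.3 μmol/kg, vesamicol·HCl 1.1 μmol/kg, or 0.31–0.53 mg/kg in other series). Blood and tissues taken 60 min post-injection to assess radiotracer accumulation.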

The test system of series [6] is rodents and other laboratory animals. Conditions: cited from earlier work.
For series [7] the following is noted: rat.
Procedure: (§1) Four groups of male Wistar rats (with four animals per group) weighing 200-350 g were used in these experiments. Each animal received, while under ether anesthesia, an intravenous injection of the radiotracer (10-20 μCi) dissolved in 0.1 ml of 50% aqueous ethanol. At 5, 30, and 60 and 180 min. post-injection, blood was collected from the anesthetized animals by cardiac puncture, and the animal was immediately sacrificed by cardiectomy. The organs and tissues of interest were harvested, transferred to preweighed tubes and counted in a Beckman gamma counter. The tubes were subsequently reweighed to give the weight of the corresponding tissues. Preweighed tubes containing ^1 -ml samples of a 1:100 dilution of the injection dose were also counted and used as reference for calculating the tissue accumulation of radioactivity. The accumulation of radiotracer was expressed as a percentage of injected dose per gram of tissue.
A short description of series [8]: Tissue distribution (biodistribution) of radioiodinated compound in the rat. Conditions: rat.
Procedure: as §1
The test system of series [9] is vesamicol receptor. Conditions: rodent brain; cited from earlier work.
The mark [10] stands for this setting: iv, 60 min, + (dl)-vesamicol HCl 0.3 (Table 3) or 0.31 mg/kg, 60 min.
The mark [11] stands for this setting: iv, 60 min, radiotracer only (control).

Consider `OC(CN1CCC(c2ccccc2)CC1)c1ccc(Br)cc1` (racemic) [Compound 15i, (dl)-1-(4-Bromophenyl)-2-(4-phenylpiperidinyl)ethanol], for which the “binding to the vesamicol receptor (in words)” value on vesamicol receptor [1] was “equipotent with (dl)-vesamicol”.
As for `OC(Cc1ccc([123I])cc1)CN1CCC(c2ccccc2)CC1` (single isomer, unassigned; (-)) [(-)-4-[^123 I]HIPP, 2-Hydroxy-3-(4-iodophenyl)-1-(4-phenylpiperidyl)propane], the “brain activity relative to surrounding tissues” value with monkey brain (11/2 and 18 hours post-injection) is “high levels of activity”. For the same compound, in the series on monkey brain (iv), the “t-1/2 in the monkey brain” value came out at 9 h. Further, in the series on monkey brain (iv, estimated), the “accumulation within the brain” value is listed as ~3 % of the injected dose.
For `O[C@@H]1CCCC[C@H]1N1CCC(c2ccccc2)CC1` (relative stereo) [vesamicol, trans-2-(4-phenylpiperidino)cyclohexanol], the “displacement of bound (-)-[^125 I]5 radioactivity from brain or heart” value with vesamicol receptor [2] was “fails to displace”. For the same compound, the “displacement of bound (-)-[^125 I]5 radioactivity from brain or heart” value in the series on vesamicol receptor [2] (listed as (dl)-vesamicol) is on record as “can not readily displace”. Besides, in series [3], the “inhibition of ACh uptake into cholinergic synaptic vesicles and of quantal release” value is “inhibit both the uptake of ACh into cholinergic synaptic vesicles and quantal release”. Besides, in the series on vesamicol receptor [4], the “dissociation from the receptor” value was “dissociate too quickly” and the “reversibility of binding to the vesamicol receptor” value is given as “binds reversibly”. The “blocking of the accumulation of [^125 I]5 in vivo, relative potency” value with vesamicol receptor [5] (vesamicol 1.1 μmol/kg, (+)-7 and (-)-7 1.3 μmol/kg, coadministered) is recorded as “equipotent”. The “respiratory paralysis and death” value in series [6] is “induces respiratory paralysis and death”.
With `OC(CN1CCC(c2ccccc2)CC1)c1ccc([125I])cc1` (single isomer, unassigned; (+)) [(+)-[^125 l]13] [1-(4-Iodophenyl)-2-(4-phenylpiperidinyl)ethanol], in the series on vesamicol receptor [5] (setting [10]), the “Brain: Blood Ratio” value amounted to 7.02, the “Heart: Blood Ratio” value amounted to 2.48 and the radioactivity in blood was 0.03 % dose/g of tissue. Besides, in the series with vesamicol receptor [5] (setting [11]), the “Brain: Blood Ratio” value turned out to be 17.86 and the “Heart: Blood Ratio” value is listed as 4.41. For the same compound, the “efflux from the brain” value in [7] is “much slower”. Besides, the “decrease of concentration in the brain” value in [8] (3 hours post-injection vs initial, listed as (+)[^123 I]13) is 35%. For the same compound, the “initial accumulation in the rat brain” value in series [8] (initial, listed as (+)-[^125 I]13) is reported as 2.75 % of the injected dose. Also, in series [8] (iv, 5 min), the “Brain: Blood Ratio” value is on record as 14.8 and the “Heart: Blood Ratio” value is recorded as 13.8. Moreover, in [8] (iv, 60 min), the “Brain: Blood Ratio” value was 41.7, the “Heart: Blood Ratio” value is on record as 8.2 and the radioactivity in lung came out at 1.77 % dose/g. Also, in [8] (iv, 180 min), the “Brain: Blood Ratio” value is recorded as 37.4, the “Heart: Blood Ratio” value is reported as 5.7, the radioactivity in blood is given as 0.02 % dose/g and the radioactivity in brain worked out at 0.93 % dose/g. Besides, in series [8] (iv, 180 min), the radioactivity in heart was 0.14 % dose/g, the radioactivity in kidney was determined as 1.53 % dose/g, the radioactivity in liver is given as 1.97 % dose/g and the radioactivity in lung is reported as 0.62 % dose/g. Moreover, in series [8] (iv, 180 min), the radioactivity in muscle stood at 0.13 % dose/g and the radioactivity in spleen amounted to 0.77 % dose/g.
`OC1Cc2ccccc2CC1N1CCC(c2ccccc2)CC1` (stereo not drawn) [Compound 1]: in series [3], the “vesamicol-like inhibitory activity (in words)” value is “potent”. Further, the eudesmic ratio entry in the series on vesamicol receptor [4] was “not unity”.
On to `OC(Cc1cccc(I)c1)CN1CCC(c2ccccc2)CC1` (single isomer, unassigned; (+)) [Compound 15j, (+)-2-Hydroxyl-3-(3-iodophenyl)-1-[1-(4-phenylpiperidinyl)]propane], for which the affinity at vesamicol receptor [1] (synaptic vesicles from electric organ of Torpedo californica, tested as hydrochloride), expressed as Kd, was 73 ± 11 nM.
In the case of `Nc1cccc2c1CC(N1CCC(c3ccccc3)CC1)C(O)C2` (stereo not drawn) [Compound 2], the “vesamicol-like inhibitory activity (in words)” value in [3] was “potent”. The “ligand potency at the vesamicol receptor (in words)” value with vesamicol receptor [4] (literature) is “potent ligands”.
For the compound `O[C@@H]1CCCC[C@H]1N1CCC(c2ccccc2)CC1` (relative stereo) [[^3 H]vesamicol], in the series with vesamicol receptor [9], the “cortical [^3 H]vesamicol binding after lesioning a known cholinergic pathway” value was “significant decrease” and the “distribution relative to other markers of cholinergic innervation” value is recorded as “correlate well”.
Regarding `OC(Cc1ccc(Br)cc1)CN1CCC(c2ccccc2)CC1` (single isomer, unassigned; (-)) [(-)-15a, 3-(4-Bromophenyl)-2-hydroxy-1-[1-(4-phenylpiperidinyl)]propane], the “binding to the vesamicol receptor (in words)” value at vesamicol receptor [1] was “essentially equipotent with vesamicol”.

Usually Kd stands for the equilibrium constant for the complex coming apart.
